Data taken from patent publication US9113629B2, “4-amino-6-(4-substituted-phenyl)-picolinates and 6-amino-2-(4-substituted-phenyl)-pyrimidine-4-carboxylates and their use as herbicides” (DOW AGROSCIENCES LLC, priority 2013, dated 2015).

Assays:
Assay in all cases: Post-emergent Test III, herbicidal activity in wheat and barley
Type in all cases: in vivo
[1] = tested on: KCHSC: kochia (Kochia scoparia); details: 21 days after application; for pest or weed control at 35 g/ha: 35 g ai/ha; for pest or weed control at 70 g/ha: 70 g ai/ha; for GR50 KCHSC / GR80 KCHSC: probit analysis; for GR50 KCHSC: dose for 50 percent growth reduction; for GR80 KCHSC: dose for 80 percent growth reduction
Outline: (§1)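 GR20, GR50, GR80 and GR90 come from probit analysis of visual injury scores (0 = none, 100 = complete kill) taken 21 d after treatment. Foliar application was by track sprayer delivering 187 L/ha at five rates, from high down to 1/16×, onto greenhouse plants at the 2–3 leaf stage, with solvent-blank controls.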

[2] = tested on: VIOSS: wild pansy (Viola tricolor), field violet (Viola arvensis); details: 21 days after application; for pest or weed control at 35 g/ha: 35 g ai/ha; for pest or weed control at 70 g/ha: 70 g ai/ha; for GR50 VIOSS / GR80 VIOSS: probit analysis; for GR50 VIOSS: dose for 50 percent growth reduction; for GR80 VIOSS: dose for 80 percent growth reduction
Outline: as §1

[3] = tested on: SASKR: Russian thistle (Salsola iberica); details: 21 days after application; for pest or weed control at 35 g/ha: 35 g ai/ha; for pest or weed control at 70 g/ha: 70 g ai/ha; for GR50 SASKR / GR80 SASKR: probit analysis; for GR50 SASKR: dose for 50 percent growth reduction; for GR80 SASKR: dose for 80 percent growth reduction
Outline: as §1

[4] = tested on: HORSS: barley, including spring and winter (Hordeum vulgare); details: 21 days after application; for pest or weed control at 35 g/ha: 35 g ai/ha; for pest or weed control at 70 g/ha: 70 g ai/ha; for GR20 HORSS: probit analysis, dose for 20 percent growth reduction (crop)
Outline: as §1

[5] = tested on: TRZSS: wheat, including spring and winter (Triticum aestivum); details: 21 days after application; for pest or weed control at 35 g/ha: 35 g ai/ha; for pest or weed control at 70 g/ha: 70 g ai/ha; for GR20 TRZSS: probit analysis, dose for 20 percent growth reduction (crop)
Outline: as §1

[6] = tested on: MATSS: scented mayweed (Matricaria chamomilla), pineappleweed (Matricaria matricarioides); details: 21 days after application; for pest or weed control at 35 g/ha: 35 g ai/ha; for pest or weed control at 70 g/ha: 70 g ai/ha; for GR50 MATSS / GR80 MATSS: probit analysis; for GR50 MATSS: dose for 50 percent growth reduction; for GR80 MATSS: dose for 80 percent growth reduction
Outline: as §1

[7] = tested on: VERPE: bird's-eye speedwell (veronica persica); details: 21 days after application; for pest or weed control at 35 g/ha: 35 g ai/ha; for pest or weed control at 70 g/ha: 70 g ai/ha; for GR50 VERPE / GR80 VERPE: probit analysis; for GR50 VERPE: dose for 50 percent growth reduction; for GR80 VERPE: dose for 80 percent growth reduction
Outline: as §1

[8] = Bassia scoparia, post-emergence, 504 h, read-out: Visual Gorowth Reduction (%) 21 days After Application KCHSC
[9] = Viola tricolor, post-emergence, 504 h, read-out: Visual Gorowth Reduction (%) 21 days After Application VIOSS
[10] = Salsola tragus, post-emergence, 504 h, read-out: Visual Gorowth Reduction (%) 21 days After Application SASKR
[11] = Hordeum vulgare, post-emergence, 504 h, read-out: Visual Gorowth Reduction (%) 21 days After Application HORSS
[12] = Triticum aestivum, post-emergence, 504 h, read-out: Visual Gorowth Reduction (%) 21 days After Application TRZSS
[13] = Matricaria chamomilla, post-emergence, 504 h, read-out: Visual Gorowth Reduction (%) 21 days After Application MATSS
[14] = Veronica persica, post-emergence, 504 h, read-out: Visual Gorowth Reduction (%) 21 days After Application VERPE

SMILES	pest or weed control at 35 g/ha [1, 8]	pest or weed control at 70 g/ha [1, 8]	GR50 KCHSC [1]	GR80 KCHSC [1]	pest or weed control at 35 g/ha [2, 9]	pest or weed control at 70 g/ha [2, 9]	GR50 VIOSS [2]	GR80 VIOSS [2]	pest or weed control at 35 g/ha [3, 10]	pest or weed control at 70 g/ha [3, 10]	GR50 SASKR [3]	GR80 SASKR [3]	pest or weed control at 35 g/ha [4, 11]	pest or weed control at 70 g/ha [4, 11]	GR20 HORSS [4]	pest or weed control at 35 g/ha [5, 12]	pest or weed control at 70 g/ha [5, 12]	GR20 TRZSS [5]	pest or weed control at 35 g/ha [6, 13]	pest or weed control at 70 g/ha [6, 13]	also measured
COC(=O)c1nc(-c2ccc(I)c(F)c2)c(F)c(N)c1Cl [Compound 132]	85 to 94%	85 to 94%	4 g ai/ha	20 g ai/ha	95 to 100%	95 to 100%	9 g ai/ha	17 g ai/ha	75 to 84%	75 to 84%	1 g ai/ha	66 g ai/ha	60 to 74%	75 to 84%	9 g ai/ha	60 to 74%	60 to 74%	10 g ai/ha	0 to 29%	30 to 44%	pest or weed control at 140 g/ha ([1]; Bassia scoparia, post-emergence, 504 h, 140 g ai/ha, read-out: Visual Gorowth Reduction (%) 21 days After Application KCHSC): 95 to 100%; pest or weed control at 140 g/ha ([2]; Viola tricolor, post-emergence, 504 h, 140 g ai/ha, read-out: Visual Gorowth Reduction (%) 21 days After Application VIOSS): 95 to 100%; pest or weed control at 140 g/ha ([3]; Salsola tragus, post-emergence, 504 h, 140 g ai/ha, read-out: Visual Gorowth Reduction (%) 21 days After Application SASKR): 75 to 84%; pest or weed control at 140 g/ha ([4]; Hordeum vulgare, post-emergence, 504 h, 140 g ai/ha, read-out: Visual Gorowth Reduction (%) 21 days After Application HORSS): 95 to 100%; pest or weed control at 140 g/ha ([5]; Triticum aestivum, post-emergence, 504 h, 140 g ai/ha, read-out: Visual Gorowth Reduction (%) 21 days After Application TRZSS): 75 to 84%; pest or weed control at 140 g/ha ([6]; Matricaria chamomilla, post-emergence, 504 h, 140 g ai/ha, read-out: Visual Gorowth Reduction (%) 21 days After Application MATSS): 30 to 44%; GR50 MATSS [6]: >140 g ai/ha; GR80 MATSS [6]: >140 g ai/ha; pest or weed control at 35 g/ha [7, 14]: 0 to 29%; pest or weed control at 70 g/ha [7, 14]: 75 to 84%; pest or weed control at 140 g/ha ([7]; Veronica persica, post-emergence, 504 h, 140 g ai/ha, read-out: Visual Gorowth Reduction (%) 21 days After Application VERPE): 85 to 94%; GR50 VERPE [7]: 58 g ai/ha; GR80 VERPE [7]: 99 g ai/ha
COc1c(N)nc(-c2ccc(I)cc2F)nc1C(=O)O [Compound 72]	60 to 74%	60 to 74%	27 g ai/ha	105 g ai/ha	30 to 44%	45 to 59%	67 g ai/ha	>140 g ai/ha	30 to 44%	60 to 74%	48 g ai/ha	106 g ai/ha	45 to 59%	60 to 74%	5 g ai/ha	75 to 84%	85 to 94%	1 g ai/ha	0 to 29%	30 to 44%	GR50 MATSS [6]: 126 g ai/ha; GR80 MATSS [6]: >140 g ai/ha; pest or weed control at 35 g/ha [7, 14]: 85 to 94%; pest or weed control at 70 g/ha [7, 14]: 95 to 100%; GR50 VERPE [7]: 1 g ai/ha; GR80 VERPE [7]: 8 g ai/ha
COC(=O)c1nc(-c2ccc(Br)cc2F)c(F)c(N)c1Cl [Compound 52]	75 to 84%	85 to 94%	5 g ai/ha	38 g ai/ha	95 to 100%	95 to 100%	12 g ai/ha	19 g ai/ha	60 to 74%	75 to 84%	4 g ai/ha	84 g ai/ha	85 to 94%	95 to 100%	1 g ai/ha	85 to 94%	85 to 94%	1 g ai/ha	0 to 29%	60 to 74%	GR50 MATSS [6]: 62 g ai/ha; GR80 MATSS [6]: 91 g ai/ha; pest or weed control at 35 g/ha [7, 14]: 75 to 84%; pest or weed control at 70 g/ha [7, 14]: 95 to 100%; GR50 VERPE [7]: 20 g ai/ha; GR80 VERPE [7]: 37 g ai/ha
COC(=O)c1nc(-c2ccc(I)c(F)c2F)c(F)c(N)c1Cl [Compound 99]	75 to 84%	85 to 94%	9 g ai/ha	27 g ai/ha	95 to 100%	95 to 100%	9 g ai/ha	19 g ai/ha	75 to 84%	75 to 84%	10 g ai/ha	48 g ai/ha	85 to 94%	95 to 100%	1 g ai/ha	85 to 94%	85 to 94%	1 g ai/ha	30 to 44%	45 to 59%	GR50 MATSS [6]: 63 g ai/ha; GR80 MATSS [6]: >140 g ai/ha; pest or weed control at 35 g/ha [7, 14]: 95 to 100%; pest or weed control at 70 g/ha [7, 14]: 95 to 100%; GR50 VERPE [7]: 8 g ai/ha; GR80 VERPE [7]: 17 g ai/ha
